Data: article PMC6198068, “Discovery of a Novel Nav1.7 Inhibitor From Cyriopagopus albostriatus Venom With Potent Analgesic Efficacy” (Frontiers in Pharmacology, 2018)
Where two headings read alike, the source gives them in different places. Where a SMILES comes first, the peptide text is derived from it. Bridges are numbered along the chain shown (N, C = ends).

Tests used:
Nav1.7 = target: T1, Nav1.7 (Homo sapiens, UniProt Q15858); test: Steady-state fast inactivation and fast inactivation time constants of Nav1.7; format: cell-based; conditions: 0.2 μM
T1 construct: expressed in transfected cells; host or cells: HEK293T
T1 sequence (O60939 30-215): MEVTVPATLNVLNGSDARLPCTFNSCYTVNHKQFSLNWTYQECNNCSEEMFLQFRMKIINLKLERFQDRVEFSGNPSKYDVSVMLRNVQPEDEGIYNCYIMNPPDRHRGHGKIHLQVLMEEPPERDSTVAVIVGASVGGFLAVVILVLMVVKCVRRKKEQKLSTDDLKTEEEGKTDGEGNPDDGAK
T1 sequence (Q15858 other isoform, or with tags, fused parts or gaps): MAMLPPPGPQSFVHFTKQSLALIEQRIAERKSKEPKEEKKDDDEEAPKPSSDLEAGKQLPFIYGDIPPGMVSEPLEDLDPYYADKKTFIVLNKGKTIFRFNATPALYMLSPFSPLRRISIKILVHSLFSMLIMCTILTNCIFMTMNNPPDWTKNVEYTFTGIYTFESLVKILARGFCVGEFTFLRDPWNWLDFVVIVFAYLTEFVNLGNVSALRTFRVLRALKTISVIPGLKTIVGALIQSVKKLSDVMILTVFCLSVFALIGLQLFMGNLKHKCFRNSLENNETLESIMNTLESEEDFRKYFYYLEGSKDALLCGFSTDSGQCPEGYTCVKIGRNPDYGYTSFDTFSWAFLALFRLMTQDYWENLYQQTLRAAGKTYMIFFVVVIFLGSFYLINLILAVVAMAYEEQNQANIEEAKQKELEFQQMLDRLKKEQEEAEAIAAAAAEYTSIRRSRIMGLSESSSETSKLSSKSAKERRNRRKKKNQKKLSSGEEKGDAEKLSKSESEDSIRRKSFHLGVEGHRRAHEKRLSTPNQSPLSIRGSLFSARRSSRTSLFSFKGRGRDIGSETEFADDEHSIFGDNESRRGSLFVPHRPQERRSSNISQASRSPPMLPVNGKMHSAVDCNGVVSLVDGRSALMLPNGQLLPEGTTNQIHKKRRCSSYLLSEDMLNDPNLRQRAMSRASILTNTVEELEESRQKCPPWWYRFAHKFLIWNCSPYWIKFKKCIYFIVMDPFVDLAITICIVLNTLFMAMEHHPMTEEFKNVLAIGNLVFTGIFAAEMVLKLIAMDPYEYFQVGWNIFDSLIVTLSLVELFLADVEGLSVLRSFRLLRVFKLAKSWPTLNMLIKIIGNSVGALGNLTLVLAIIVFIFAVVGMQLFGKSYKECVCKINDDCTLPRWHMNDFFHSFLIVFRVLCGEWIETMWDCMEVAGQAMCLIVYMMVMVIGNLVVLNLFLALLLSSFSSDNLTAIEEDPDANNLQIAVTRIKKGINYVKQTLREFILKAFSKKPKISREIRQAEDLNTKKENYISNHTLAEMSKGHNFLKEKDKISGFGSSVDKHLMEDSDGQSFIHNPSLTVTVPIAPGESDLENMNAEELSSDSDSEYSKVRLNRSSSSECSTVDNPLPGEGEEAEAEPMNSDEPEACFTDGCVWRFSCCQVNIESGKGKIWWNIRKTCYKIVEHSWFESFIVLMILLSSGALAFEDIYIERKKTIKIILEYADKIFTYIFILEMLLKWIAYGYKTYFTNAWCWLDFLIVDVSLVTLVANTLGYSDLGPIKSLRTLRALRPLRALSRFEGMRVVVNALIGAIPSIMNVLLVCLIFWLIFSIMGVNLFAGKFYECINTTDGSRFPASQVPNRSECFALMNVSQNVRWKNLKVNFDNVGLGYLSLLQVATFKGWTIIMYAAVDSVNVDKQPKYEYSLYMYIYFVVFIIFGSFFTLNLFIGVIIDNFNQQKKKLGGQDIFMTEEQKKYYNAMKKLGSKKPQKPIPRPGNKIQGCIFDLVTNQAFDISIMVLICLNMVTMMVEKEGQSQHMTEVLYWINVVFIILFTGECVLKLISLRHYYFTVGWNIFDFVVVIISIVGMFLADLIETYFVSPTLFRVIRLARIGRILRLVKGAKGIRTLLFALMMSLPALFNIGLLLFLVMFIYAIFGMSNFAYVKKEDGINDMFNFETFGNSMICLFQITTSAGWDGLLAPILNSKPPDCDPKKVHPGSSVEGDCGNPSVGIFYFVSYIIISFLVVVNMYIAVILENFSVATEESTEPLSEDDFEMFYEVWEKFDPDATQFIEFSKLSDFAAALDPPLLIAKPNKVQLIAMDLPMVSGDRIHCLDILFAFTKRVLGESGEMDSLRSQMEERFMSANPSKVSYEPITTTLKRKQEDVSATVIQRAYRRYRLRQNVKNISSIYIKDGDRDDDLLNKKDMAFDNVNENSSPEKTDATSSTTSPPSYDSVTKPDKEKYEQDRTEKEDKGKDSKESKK
T1 sequence (Q07699 19-218, further chain): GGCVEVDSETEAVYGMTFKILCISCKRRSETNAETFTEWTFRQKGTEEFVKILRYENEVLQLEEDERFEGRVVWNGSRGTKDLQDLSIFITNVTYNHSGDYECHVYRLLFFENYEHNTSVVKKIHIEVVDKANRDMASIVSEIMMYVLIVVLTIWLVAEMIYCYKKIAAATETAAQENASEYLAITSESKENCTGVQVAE
From the text: (§1) The cDNA genes encoding rat Nav1.4 and human Nav1.7 were subcloned into vectors pRGB4 and pcDNA3.1-mod, respectively. Mutations of rNav1.4 (N655D, Q657E, and N655D/Q657E) and hNav1.7 (D816N, E818Q, and D816N/E818Q) were constructed using the Gene Tailor Site-Directed Mutagenesis system (Invitrogen, Carlsbad, CA, United States), according to the manufacturer’s instructions. Nav1.2–Nav1.7 and mutant plasmids together with eGFP were transiently transfected into HEK293T cells while Nav1.8 together with eGFP was transiently transfected into ND7/23 cells by Lipofectamine 2000 (Invitrogen, Carlsbad, CA, United States). […] Cells with green fluorescent protein fluorescence were selected for whole-cell patch-clamp recordings 24 h after transfection.
(§2) Whole-cell patch-clamp recordings were performed at room temperature (20–25°C) using an EPC 10 USB Patch Clamp Amplifier (HEKA, Elektronik, Lambrecht, Germany). […] Data was analyzed by software Igo Pro 6.10A (WaveMetrics, Lake Oswego, OR, United States), SigmaPlot 10.0 (Sigma-Aldrich, St. Louis, MO, United States), OriginPro 8 (OriginLab Corp., Northampton, MA, United States), and GraphPad Prism 5 (GraphPad Software, San Diego, CA, United States). […]
Fast inactivation time constants were calculated by fitting current decay traces with a single exponential function using the I–V protocol described above. […]

Nav1.4/Q657E = target: T2, Nav1.4/Q657E (Rattus norvegicus, UniProt P15390, Q657E); test: Whole-cell patch-clamp, Nav1.4/Q657E in HEK293T cells; format: cell-based
T2 construct: expressed in transfected cells; host or cells: HEK293T
T2 sequence (P15390 whole entry Q657E): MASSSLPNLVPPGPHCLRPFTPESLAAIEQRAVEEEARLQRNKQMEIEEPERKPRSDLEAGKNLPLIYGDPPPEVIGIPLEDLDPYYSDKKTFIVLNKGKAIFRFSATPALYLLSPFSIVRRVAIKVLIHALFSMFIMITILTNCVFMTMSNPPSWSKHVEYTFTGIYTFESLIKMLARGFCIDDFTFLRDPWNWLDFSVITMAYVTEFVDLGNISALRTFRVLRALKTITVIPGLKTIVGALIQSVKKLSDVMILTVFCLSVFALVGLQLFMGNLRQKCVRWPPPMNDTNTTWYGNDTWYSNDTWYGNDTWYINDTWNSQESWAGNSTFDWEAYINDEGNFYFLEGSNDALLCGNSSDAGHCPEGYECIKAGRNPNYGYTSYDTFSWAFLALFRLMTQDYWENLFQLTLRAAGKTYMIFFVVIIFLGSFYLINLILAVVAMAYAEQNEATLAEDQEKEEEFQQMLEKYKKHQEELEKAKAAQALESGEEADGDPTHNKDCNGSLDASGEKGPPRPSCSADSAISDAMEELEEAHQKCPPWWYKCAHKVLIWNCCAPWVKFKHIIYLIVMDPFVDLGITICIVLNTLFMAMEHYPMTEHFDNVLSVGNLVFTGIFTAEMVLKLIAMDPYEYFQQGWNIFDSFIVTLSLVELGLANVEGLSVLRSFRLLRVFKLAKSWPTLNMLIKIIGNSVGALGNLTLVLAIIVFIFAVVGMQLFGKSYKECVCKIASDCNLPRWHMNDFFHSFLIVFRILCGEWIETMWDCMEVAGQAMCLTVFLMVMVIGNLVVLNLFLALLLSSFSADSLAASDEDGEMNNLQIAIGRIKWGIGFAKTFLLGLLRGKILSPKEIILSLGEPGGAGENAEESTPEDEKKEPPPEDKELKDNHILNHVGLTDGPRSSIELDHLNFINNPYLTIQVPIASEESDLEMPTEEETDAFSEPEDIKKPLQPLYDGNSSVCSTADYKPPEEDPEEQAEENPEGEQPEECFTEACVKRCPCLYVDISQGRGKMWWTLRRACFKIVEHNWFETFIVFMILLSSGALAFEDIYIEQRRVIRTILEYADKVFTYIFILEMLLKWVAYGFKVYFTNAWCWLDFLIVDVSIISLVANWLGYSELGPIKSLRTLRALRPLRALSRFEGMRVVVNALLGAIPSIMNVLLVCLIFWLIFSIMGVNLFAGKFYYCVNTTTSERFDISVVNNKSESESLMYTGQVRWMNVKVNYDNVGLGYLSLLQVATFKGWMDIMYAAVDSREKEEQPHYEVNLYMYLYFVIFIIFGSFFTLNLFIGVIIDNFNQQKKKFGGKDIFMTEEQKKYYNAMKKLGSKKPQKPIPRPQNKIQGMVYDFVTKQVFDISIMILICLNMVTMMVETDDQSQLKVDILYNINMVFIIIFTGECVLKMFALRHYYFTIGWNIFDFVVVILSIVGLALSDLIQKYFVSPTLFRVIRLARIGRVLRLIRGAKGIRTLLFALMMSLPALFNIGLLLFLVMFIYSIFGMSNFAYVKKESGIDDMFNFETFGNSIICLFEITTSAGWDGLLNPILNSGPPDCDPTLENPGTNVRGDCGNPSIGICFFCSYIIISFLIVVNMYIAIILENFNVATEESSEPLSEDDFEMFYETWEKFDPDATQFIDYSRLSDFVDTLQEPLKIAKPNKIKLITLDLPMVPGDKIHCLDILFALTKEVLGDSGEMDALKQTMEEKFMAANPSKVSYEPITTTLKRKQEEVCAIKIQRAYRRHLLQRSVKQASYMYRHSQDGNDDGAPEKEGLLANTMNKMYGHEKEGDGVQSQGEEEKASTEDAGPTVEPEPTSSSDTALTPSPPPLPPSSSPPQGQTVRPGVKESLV
From the text: as §1, with “States). Additionally, plasmids β1- and β2-eGFP encoding the human β1 and β2 subunits, respectively, were co-transfected with those encoding WT Nav1.7 and Nav1.7 mutations in HEK293T cells.” for “States).”
as §2

[1] = tested on: acetic acid-induced writhing in mice; format: in vivo, ICR mice; conditions: counted 30 min, control 27.3 ± 3.3, mean ± SEM, n = 6–8
Experimental: The ICR mice (18–22 g) used in this study were purchased from the Experimental Animal Center of SLac-kinda (Changsha, China). The animals were maintained at 20–25°C and freely allowed to standard rodent chow and water ad libitum. Ethical approval for in vivo experiments in animals was approved by the Animal Care and Use Committee (ACUC) at the Hunan Province Animal Management Office (HPAMO).
The abdominal writhing responses were counted for 30 min continuously.

WT Nav1.7 = target: T3, WT Nav1.7 (Homo sapiens, UniProt Q15858); test: Time course of Nav1.7 inhibition and recovery upon washing; format: cell-based; conditions: 1 μM, n = 4
T3 construct: expressed in transfected cells; host or cells: HEK293T
T3 sequence (Q07699 19-218): as the sequence (Q07699 19-218, further chain) above
T3 sequence (Q15858 other isoform, or with tags, fused parts or gaps): as the sequence (Q15858 other isoform, or with tags, fused parts or gaps) above
T3 sequence (O60939 30-215, further chain): as the sequence (O60939 30-215) above
From the text: as §1, with “States). Additionally, plasmids β1- and β2-eGFP encoding the human β1 and β2 subunits, respectively, were co-transfected with those encoding WT Nav1.7 and Nav1.7 mutations in HEK293T cells.” for “States).”
as §2

## CC(C)C[C@H](NC(=O)[C@H](CC(=O)O)NC(=O)[C@H](Cc1ccc(O)cc1)NC(=O)[C@H](CCCCN)NC(=O)[C@@H]1CSSC[C@@H]2NC(=O)[C@H](CCCCN)NC(=O)[C@H](CC(=O)O)NC(=O)[C@H](CC(N)=O)NC(=O)[C@H](CO)NC(=O)[C@@H]3CCCN3C(=O)[C@H](CC(N)=O)NC(=O)[C@@H]3CSSC[C@H](NC(=O)[C@H](C(C)C)NC(=O)[C@H](CC(C)C)NC(=O)[C@H](CO)NC(=O)[C@H](CO)NC(=O)[C@H](CO)NC(=O)[C@H](CCCCN)NC(=O)[C@H](CSSC[C@H](NC(=O)[C@H](C)N)C(=O)N[C@@H](CC(C)C)C(=O)NCC(=O)N[C@@H](Cc4ccccc4)C(=O)NCC(=O)N[C@@H](CCC(=O)O)C(=O)N[C@@H](CCCCN)C(=O)N3)NC2=O)C(=O)N[C@@H](CO)C(=O)N[C@@H](CCC(N)=O)C(=O)N[C@@H](CCCCN)C(=O)N[C@@H](Cc2c[nH]cn2)C(=O)N[C@@H](CCCCN)C(=O)N[C@@H](Cc2c[nH]c3ccccc23)C(=O)N1)C(=O)O [Ca2a] (H-ACLGFGEKCNPSNDKCCKSSSLVCSQKHKWCKYDL-OH; disulfide 2-17, 9-24, 16-31 (inferred); N-terminus and C-terminus assumed)
Nav1.7; between −15 and 10 mV, P > 0.05, two-way ANOVA, n = 6–11 cells
  fast inactivation time constants of Nav1.7: did not alter the inactivation time constants
Nav1.7; control −70.2 ± 0.8 mV, 500-ms prepulse, mean ± SEM, n = 10
  half-inactivation voltage of Nav1.7 (steady-state fast inactivation): −70.7 ± 1.1 mV
Nav1.4/Q657E; 1 μM, n = 4–5 cells
  inhibition of peak current of Nav1.4/Q657E: significantly inhibited
Nav1.4/Q657E; mean ± SEM, n = 4–5 cells per data point
  IC50: 269 ± 14.9 nM
[1]; 50 μg/kg i.p. 15 min prior to 0.8% acetic acid
  writhing numbers: 15.8 ± 2.4
[1]; 100 μg/kg i.p. 15 min prior to 0.8% acetic acid
  writhing numbers: 10.5 ± 2.8
[1]; 200 μg/kg i.p. 15 min prior to 0.8% acetic acid
  writhing numbers: 5.4 ± 2.2
WT Nav1.7; recovery upon washing with bath solution
  τoff, WT Nav1.7: 295.6 ± 27.5 s
WT Nav1.7
  τon, WT Nav1.7: 18.0 ± 2.5 s
